Patent US5565462A, “Composition for topical treatment of psoriasis and atopic dermatitis comprising a xanthine derivative” (Teva Pharmaceutical Industries, Ltd., priority 1991, dated 1996)

Tests used:
[1] = system: human psoriatic skin transplants; assay: Topical treatment of human psoriatic skin transplanted to nude mice (epidermal thickness / acanthosis); format: in vivo, human skin on outbred Balb/C nude mice
Description: Human psoriatic skin from psoriatic patients was transplanted to nude mice essentially according to the method of G. Kreuger et al., Prog. in Dermatol. […] The donors had stable plaque type psoriasis for at least one year preceding biopsy and had not received systemic anti-psoriatic therapy for the 4 weeks preceding biopsy. They had also not received topical therapy or U.V. therapy for the two weeks preceding biopsy. […] In this method the area (A) of the psoriasis in four main body parts (head (H), trunk (T), upper extremities (U) and lower extremities (L)) is assigned a value from 0-6 depending on the extent of psoriasis where O reflects no involvement and 6 reflects 90-100% involvement. The severity of the lesion is assessed based on three parameters: Erythema (E), Desquamation (scaling) (D) and Infiltration (I). The severity of each of these parameters is measured on a scale of 0-4 where 0 is no involvement and 4 is very sever. The total severity score is calculated according to the following formula: […]
Split thickness biopsies of nonpustular psoriatic human tissue, 4×5 cm and 0.4 mm thick were obtained from the edge of established plaques from various donor patients. […] The grafts were allowed to heal for one week prior to topical application of the test preparations.
Outbred Balb/C nude mice, 2 to 3 months of age were used in this study. The mice were obtained from the pathogen free animal breeding facility at the University of Tel Aviv (Israel) and were raised in the pathogen-free animal facility at the Faculty of Medicine, Technion-Israel Institute of Technology, Haifa, Israel.
On the day following the end of treatment the severity of the psoriatic lesion was assessed and then the animals were sacrificed and the entire graft was excised and divided into two equal sections. One section was used to assess changes in the rate of proliferation by autoradiography (tritiated thymidine incorporation) while the other section was sectioned for microscopic histological assessment, including acanthosis and parakeratosis.
In another series of experiments, human psoriatic skin of various severities was transplanted on each of 28 nude mice. The graft area was treated with various preparations as described above.
The treatments were applied as creams and were administered as described above.

[2] = system: human psoriatic fibroblasts; assay: Inhibition of human psoriatic fibroblast proliferation; format: cell-based; conditions: Homo sapiens, Fibroblast
Protocol: PTX and PPF, alone as well as PTX in combination with other drugs were tested.
Human psoriatic fibroblasts were obtained from skin biopsies of 5 individuals with plaque psoriasis. Cells in the 3-7th passages were used for the experiments. Human psoriatic fibroblasts (4×10^3 -6×10^3 cells) were added in 24-well plates and cultured in Dulbecco's Modified Eagle's Medium (DMEM) supplemented with 10% fetal calf serum, 2 mM L-glutamine, 100 u/ml penicillin, 100 μg/ml streptomycin (DMEM+) at 5% CO2 and 95% humidity at 37° C.
After 3 days, medium was replaced with fresh DMEM+(control) or with medium containing various concentrations of compounds alone or in combination with pentoxifylline and incubation was continued for additional 3 days. Stock solutions (10^-1 -10^-2 M) of the compounds tested were made in ethanol. For these compounds special control (DMEM+ with 1% ethanol) was made. The compounds tested together with pentoxifylline were 3-heptanone, 3,3-dimethylbutyric acid, lipoic acid, 1,25-dihydroxyvitamin D3 betamethasone dipropionate and hydrocortisone-17-butyrate.
On the last day of experiments, the medium was aspirated and the cells were obtained by trypsinization. The number of cells in each well was counted by the use of an hemocytometer.
The percentage of inhibition of fibroblast proliferation was calculated according to the formula: [formula] and the results are shown in Tables 3 and 4.

[3] = system: human peripheral blood mononuclear cells (lymphocytes); assay: Inhibition of the mitogenic (PHA) stimulation of human lymphocytes (PBMC), [3H]thymidine; format: cell-based
Protocol: Buffy coats from the Beilinson Medical Center Blood Bank or 20 mL samples of heparinized venous blood from healthy or atopic donors were used as a source for human peripheral blood mononuclear (PBM) cells. PBM cells were separated by Ficoll-Hypaque density gradient centrifugation. […] The nonadhering cells were stirred gently and carefully collected.
PHA (1 μg/mL), indomethacin (5 μg/mL) and various xanthine derivatives were added at initiation of culture. Indomethacin was dissolved in ethanol. […] [methyl-^3 H]Thymidine (1 μCi/well) was added at 68 h, and the cells were harvested 4 h later using an automated cell harvester (Dynatech, Alexandria, Va.). Unless otherwise stated, all cultures were performed in triplicate.

[4] = system: psoriasis lesions; assay: Clinical trial in psoriasis, 2% pentoxifylline cream vs placebo, right-left comparison, PASI; format: in vivo, human patients; conditions: for decrease in PASI: 2% cream twice daily
Protocol: A clinical trial was performed comparing a cream composition of 2% pentoxifylline (formulation A of Example 1) to placebo. The trial was randomized, double blind, placebo controlled, right-left comparison within patient design.
Two similar plaque areas of psoriasis (i.e. both legs or forearms), were selected for treatment in each patient. In each patient one area on one side of the body was treated with 2% pentoxifylline formulated as in Example 1 and the other area on the other side of the body was treated with placebo cream formulated identically but without the pentoxifylline. The cream (formulation A in Example 1) was applied by the patient twice daily.
Patients stopped all forms of topical psoriatic treatment two weeks before entry into the study.
Systemic psoriatic treatments and phototherapy were stopped one month before entry into the study.
The dermatological assessment was performed as follows. The dermatologist measured the area of the lesion in cm^2. The severity of each lesion was evaluated by grading erythema, scaling and thickness on a 0-4 scale where 0=none, 1=slight, 2=moderate, 3=severe and 4=exceptionally severe.
Based on these measurements the Psoriasis Area Severity Index (PASI) was calculated for each of the 2 lesions on each patient as follows:
PASI=Area x (Erythema+Thickness+Scaling)

[5] = system: atopic dermatitis; assay: Clinical trial in atopic dermatitis, 2% pentoxifylline cream vs vehicle, bilateral comparison; format: in vivo, human patients; conditions: 2% cream twice a day, four weeks, seven patients aged 3-10 years
Protocol: A randomized double blind, vehicle controlled, bilateral comparison study was performed, to determine the effect of pentoxifylline (PTX) in the treatment of atopic dermatitis. The study medication contained 2% pentoxifylline in an oil-in-water cream vehicle, and the control treatment consisted of the same vehicle without the pentoxifylline. The exact formulations appear in Table 7.
Seven patients (aged 3-10 years) were enrolled in the trial and evaluated for pruritus, erythema, dryness/scaling and exudate. Pentoxifylline cream, or the placebo (the identical cream, but without the pentoxifylline) were dispensed in identical tubes that were marked for application to right and left sides. Patients were instructed to apply medication twice a day (morning and evening) for four weeks.

CC(=O)CCCCn1c(=O)c2c(ncn2C)n(C)c1=O [Pentoxifylline, 3,7-dimethyl-1-(5-oxohexyl)-xanthine]
% Improvement (Decrease in Thickness) ([1]; 2% PTX cream, 7 days, donor patient 3 (PASI 7.6)): 40%
% Improvement (Decrease in Thickness) ([1]; 2% PTX cream, 7 days, donor patient 4 (PASI 17.6)): 22%
% Improvement (Decrease in Thickness) ([1]; 2% PTX cream, 7 days, donor patient 6 (PASI 3.8), placebo 0): 30%
Average Improvement (decrease in epidermal thickness) ([1]; 2% PTX cream, 7 days, placebo 5%): 31%
Epidermal Thickness (Acanthosis) after 7 days treatment ([1]; 2% PTX cream, donor patient 3 (PASI 7.6), before treatment 46 μm): 28 μm
Epidermal Thickness (Acanthosis) after 7 days treatment ([1]; 2% PTX cream, donor patient 4 (PASI 17.6), before treatment 54 μm): 42 μm
Epidermal Thickness (Acanthosis) after 7 days treatment ([1]; 2% PTX cream, donor patient 6 (PASI 3.8), before treatment 55 μm): 39 μm
SUCCESS RATIO (decrease of at least 15% in epidermal thickness) ([1]; 2% pentoxifylline cream (Example 1A), 7 days topical, placebo 0/6): 6/10
effectiveness in treating psoriasis (in words) ([1]; experiment of Table 1, transplanted skin): almost as effective as steroids in treating psoriasis and far more effective than dyphylline
effectiveness in treating psoriasis (in words) ([1]; experiment of Table 2, 28 nude mice): almost as effective as topical steroids in treating psoriasis and far more effective than dyphylline
effectiveness in the treatment of psoriasis (in words) ([1]; summary of the animal model experiments): effective in the treatment of psoriasis
inhibition at 1000 µM ([2]; PTX alone, 10^-3 M, Table 3): 16.9%
inhibition at 100 µM ([2]; compound alone, 10^-4 M, Table 4): 5.9%
inhibition at 1000 µM ([3]; Homo sapiens, Lymphocyte, 1 × 10^-3 M, lymphocytes from healthy volunteers, read-out: net inhibitory effect on the mitogenic stimulation of human lymphocytes): 70%
inhibition at 300 µM ([3]; Homo sapiens, Lymphocyte, 3 × 10^-4 M, lymphocytes from healthy volunteers, read-out: net inhibitory effect on the mitogenic stimulation of human lymphocytes): 46%
inhibition of the mitogenic stimulation compared with the other xanthine derivatives (in words) ([3]; vs theophylline and diphylline, healthy volunteers): inhibited the mitogenic stimulation to a far greater effect than the other xanthine derivatives
decrease in PASI ([4]; Patient 1, 1.5 weeks, placebo side 0%): 58%
decrease in PASI ([4]; Patient 2, 2 weeks, placebo side 34%): 53%
decrease in PASI ([4]; Patient 3, 2 weeks, placebo side 45%): 73%
decrease in PASI ([4]; Patient 3, 6 weeks, placebo side 56%): 90%
decrease in PASI ([4]; Patient 4, 6 weeks, placebo side 73%): 91%
decrease in PASI ([4]; Patient 4, 8 weeks, placebo side 57%): 88%
decrease in PASI ([4]; Patient 5, 2 weeks, placebo side 25%): 73%
effectiveness in the treatment of psoriatic lesions (in words) ([4]; topical, summary of clinical trials): very effective therapeutic for the treatment of psoriatic lesions
improvement of pruritus, erythema, dryness/scaling and exudate (in words) [5]: significantly improved each of the four symptoms evaluated
